Here are results for two molecules from US7217423B2, “Revitalising active complex for the skin” (Coty B.V., priority 2001, dated 2007).

Assay [1] relates to cell homogenate of epithelial cells. Description: oxygraphy: stimulation of oxygen consumption. It counts as cell-based. Particulars: control = 100%. The text has this: Another synergy could be observed with regard to oxygraphy, i.e. the stimulation of the oxygen consumption of a cell homogenate of epithelial cells.
Assay [2] has as its system dermal fibroblasts obtained from explanted normal human skin. Description: in-vitro anti-stress test under UV activity (LDH). It counts as cell-based. Particulars: control group = 100%, mean of 5 tests. As for the experimental part: In this test, a culture of dermal fibroblasts obtained from explanted normal human skin is subjected to UV-induced stress. The amounts of the enzyme lacticodes-hydrogenase (LDH) produced as a consequence of the aforesaid stress are proportional to the cell damage caused. The culture medium contained, for example, 3 wt. % of glycogen (Dermo-saccharides GY®), and a series of control tests without the aforesaid additive was carried out for comparative purposes.

On to `CN(CC(=O)O)C(=N)N` [creatine, N-carbamidoyl-N-methylglycine], for which the oxygen consumption in assay [1] (2 wt. % creatine added to control liquid (buffer)) came to 119%. The “protection of cells after UV radiation” value in assay [2] (2 wt. % creatine in culture liquid) is 110%.
Consider glycogen, for which the oxygen consumption in assay [1] (3 wt. % glycogen added to control liquid (buffer)) was 135%. Moreover, in assay [2] (3 wt. % glycogen in culture medium, 4 days after UV radiation), the “protection of cells still alive after UV radiation” value is recorded as 128%.
